{
  "source": "ChEMBL document CHEMBL1155237",
  "about": "“Selective inhibitors of the mutant B-Raf pathway: discovery of a potent and orally bioavailable aminoisoquinoline” (J Med Chem, 2009)",
  "key": {"[1]": {"molecular_target": "Phosphorylase b kinase gamma catalytic chain, skeletal muscle/heart isoform (Homo sapiens) (UniProt Q16816)", "test": "Inhibition of PHKG1 assessed as enzyme activity at 1 uM relative to untreated control", "parameters": "scale not given: the % may be the effect or the level left"}, "[2]": {"molecular_target": "Calcium/calmodulin-dependent protein kinase type IV (Homo sapiens) (UniProt Q16566)", "test": "Inhibition of CAMK4 assessed as enzyme activity at 1 uM relative to untreated control", "parameters": "scale not given: the % may be the effect or the level left"}, "[3]": {"molecular_target": "Myosin light chain kinase 2, skeletal/cardiac muscle (Homo sapiens) (UniProt Q9H1R3)", "sequence (Q9H1R3 whole entry)": "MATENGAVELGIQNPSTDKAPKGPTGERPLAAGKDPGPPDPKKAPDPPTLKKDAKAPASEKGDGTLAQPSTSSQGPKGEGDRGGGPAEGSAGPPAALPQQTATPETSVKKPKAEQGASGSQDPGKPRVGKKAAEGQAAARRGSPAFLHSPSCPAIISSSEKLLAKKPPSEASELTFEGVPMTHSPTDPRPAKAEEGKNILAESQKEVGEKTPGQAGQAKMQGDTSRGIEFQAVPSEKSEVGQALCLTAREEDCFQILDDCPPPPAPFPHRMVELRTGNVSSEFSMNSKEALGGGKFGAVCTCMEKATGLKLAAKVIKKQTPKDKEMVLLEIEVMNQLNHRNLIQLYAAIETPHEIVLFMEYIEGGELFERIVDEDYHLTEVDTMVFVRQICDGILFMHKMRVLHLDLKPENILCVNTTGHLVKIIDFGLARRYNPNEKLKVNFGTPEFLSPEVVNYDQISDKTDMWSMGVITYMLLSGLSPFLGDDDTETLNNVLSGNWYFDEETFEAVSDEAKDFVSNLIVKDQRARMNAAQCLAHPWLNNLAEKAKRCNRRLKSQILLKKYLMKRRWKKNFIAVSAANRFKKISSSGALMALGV", "test": "Inhibition of MYLK2 assessed as enzyme activity at 1 uM relative to untreated control", "parameters": "scale not given: the % may be the effect or the level left"}, "[4]": {"molecular_target": "Cyclin-dependent kinase 17 (Homo sapiens) (UniProt Q00537)", "test": "Inhibition of PCTK2 assessed as enzyme activity at 1 uM relative to untreated control", "parameters": "scale not given: the % may be the effect or the level left"}, "[5]": {"molecular_target": "Cyclin-dependent kinase-like 2 (Homo sapiens) (UniProt Q92772)", "test": "Inhibition of CDKL2 assessed as enzyme activity at 1 uM relative to untreated control", "parameters": "scale not given: the % may be the effect or the level left"}, "[6]": {"tested_on": "Mast/stem cell growth factor receptor Kit (Homo sapiens), P10721 [D816V]", "test": "Inhibition of KIT D816V mutant assessed as enzyme activity at 1 uM relative to untreated control", "parameters": "scale not given: the % may be the effect or the level left"}, "[7]": {"molecular_target": "ALK tyrosine kinase receptor (Homo sapiens) (UniProt Q9UM73)", "test": "Inhibition of ALK assessed as enzyme activity at 1 uM relative to untreated control", "parameters": "scale not given: the % may be the effect or the level left"}, "[8]": {"molecular_target": "Tyrosine-protein kinase Mer (Homo sapiens) (UniProt Q12866)", "test": "Inhibition of MERTK assessed as enzyme activity at 1 uM relative to untreated control", "parameters": "scale not given: the % may be the effect or the level left"}, "[9]": {"molecular_target": "Tyrosine-protein kinase FRK (Homo sapiens) (UniProt P42685)", "sequence (P42685 whole entry)": "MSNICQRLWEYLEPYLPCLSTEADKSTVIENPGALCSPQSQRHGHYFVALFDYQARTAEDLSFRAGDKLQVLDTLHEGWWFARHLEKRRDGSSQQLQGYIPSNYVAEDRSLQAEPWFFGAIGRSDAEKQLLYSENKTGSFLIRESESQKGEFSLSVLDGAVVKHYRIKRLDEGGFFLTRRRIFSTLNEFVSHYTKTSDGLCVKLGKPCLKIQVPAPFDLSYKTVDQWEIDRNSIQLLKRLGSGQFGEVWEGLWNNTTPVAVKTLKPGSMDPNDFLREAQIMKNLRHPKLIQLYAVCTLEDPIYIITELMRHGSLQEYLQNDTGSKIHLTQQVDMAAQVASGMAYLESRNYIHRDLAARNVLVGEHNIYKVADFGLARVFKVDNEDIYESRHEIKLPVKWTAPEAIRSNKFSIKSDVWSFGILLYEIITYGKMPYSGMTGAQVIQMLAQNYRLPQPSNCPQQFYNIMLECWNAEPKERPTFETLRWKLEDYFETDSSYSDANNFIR", "test": "Inhibition of FRK assessed as enzyme activity at 1 uM relative to untreated control", "parameters": "scale not given: the % may be the effect or the level left"}, "[10]": {"molecular_target": "Mitogen-activated protein kinase kinase kinase 9 (Homo sapiens) (UniProt P80192)", "sequence (P80192 whole entry, looked up)": "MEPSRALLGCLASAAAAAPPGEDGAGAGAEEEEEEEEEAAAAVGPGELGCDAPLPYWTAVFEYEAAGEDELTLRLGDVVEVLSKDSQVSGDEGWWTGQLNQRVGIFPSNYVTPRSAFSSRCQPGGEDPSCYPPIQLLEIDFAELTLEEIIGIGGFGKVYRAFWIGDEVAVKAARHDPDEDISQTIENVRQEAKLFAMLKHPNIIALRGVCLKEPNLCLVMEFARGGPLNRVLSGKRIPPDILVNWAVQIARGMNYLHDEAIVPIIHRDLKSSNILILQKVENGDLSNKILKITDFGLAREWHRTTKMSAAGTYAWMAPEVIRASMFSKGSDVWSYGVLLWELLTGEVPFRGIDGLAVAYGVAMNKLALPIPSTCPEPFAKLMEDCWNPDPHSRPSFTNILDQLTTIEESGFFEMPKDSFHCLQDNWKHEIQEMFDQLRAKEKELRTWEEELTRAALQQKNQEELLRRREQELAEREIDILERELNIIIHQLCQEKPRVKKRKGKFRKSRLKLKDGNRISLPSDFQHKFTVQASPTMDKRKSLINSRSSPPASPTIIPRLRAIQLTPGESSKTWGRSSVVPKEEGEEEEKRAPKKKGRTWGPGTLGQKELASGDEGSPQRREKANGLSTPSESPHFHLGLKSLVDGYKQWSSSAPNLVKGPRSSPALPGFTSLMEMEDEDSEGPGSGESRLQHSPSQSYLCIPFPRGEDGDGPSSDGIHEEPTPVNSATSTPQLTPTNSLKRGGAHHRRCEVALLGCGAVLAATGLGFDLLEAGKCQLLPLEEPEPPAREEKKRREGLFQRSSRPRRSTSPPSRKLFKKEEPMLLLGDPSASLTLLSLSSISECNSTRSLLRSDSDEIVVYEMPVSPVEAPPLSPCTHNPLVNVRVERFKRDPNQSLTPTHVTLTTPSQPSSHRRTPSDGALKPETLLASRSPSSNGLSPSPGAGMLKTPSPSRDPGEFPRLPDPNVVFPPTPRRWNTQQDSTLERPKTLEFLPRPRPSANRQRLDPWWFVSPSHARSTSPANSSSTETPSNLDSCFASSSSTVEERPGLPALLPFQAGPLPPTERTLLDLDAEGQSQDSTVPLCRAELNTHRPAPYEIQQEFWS", "test": "Inhibition of MLK1 assessed as enzyme activity at 1 uM relative to untreated control", "parameters": "scale not given: the % may be the effect or the level left"}, "[11]": {"molecular_target": "Interferon-induced, double-stranded RNA-activated protein kinase (Homo sapiens) (UniProt P19525)", "sequence (P19525 whole entry)": "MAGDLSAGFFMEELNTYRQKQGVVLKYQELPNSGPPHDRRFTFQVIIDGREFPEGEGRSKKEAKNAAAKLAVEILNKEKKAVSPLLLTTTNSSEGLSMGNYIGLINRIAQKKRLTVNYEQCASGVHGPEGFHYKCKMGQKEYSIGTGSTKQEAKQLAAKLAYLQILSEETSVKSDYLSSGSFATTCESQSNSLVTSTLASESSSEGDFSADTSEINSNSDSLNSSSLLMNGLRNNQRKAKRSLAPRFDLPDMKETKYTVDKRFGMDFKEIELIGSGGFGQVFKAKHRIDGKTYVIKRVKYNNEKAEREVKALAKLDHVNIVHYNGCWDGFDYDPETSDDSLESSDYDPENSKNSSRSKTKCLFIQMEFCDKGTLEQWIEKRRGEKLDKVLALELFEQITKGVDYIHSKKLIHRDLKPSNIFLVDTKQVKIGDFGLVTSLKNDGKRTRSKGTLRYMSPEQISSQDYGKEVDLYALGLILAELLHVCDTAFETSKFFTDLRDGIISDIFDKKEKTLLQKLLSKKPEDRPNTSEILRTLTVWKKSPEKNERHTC", "test": "Inhibition of PRKR assessed as enzyme activity at 1 uM relative to untreated control", "parameters": "scale not given: the % may be the effect or the level left"}, "[12]": {"molecular_target": "Mitogen-activated protein kinase 14 (Homo sapiens, UniProt Q16539)", "sequence (Q16539 whole entry)": "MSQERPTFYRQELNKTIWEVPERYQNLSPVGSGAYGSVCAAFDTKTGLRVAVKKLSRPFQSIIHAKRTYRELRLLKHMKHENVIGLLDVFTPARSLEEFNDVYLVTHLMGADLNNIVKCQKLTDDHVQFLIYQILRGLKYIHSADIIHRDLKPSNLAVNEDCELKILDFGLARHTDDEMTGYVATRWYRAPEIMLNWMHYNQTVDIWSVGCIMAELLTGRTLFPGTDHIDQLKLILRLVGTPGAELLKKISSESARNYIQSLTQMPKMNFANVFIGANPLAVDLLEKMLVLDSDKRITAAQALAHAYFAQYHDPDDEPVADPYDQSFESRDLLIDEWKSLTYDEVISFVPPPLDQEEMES", "test": "Inhibition of p38alpha"}, "[13]": {"molecular_target": "Serine/threonine-protein kinase pim-1 (Homo sapiens) (UniProt P11309)", "test": "Inhibition of PIM1 assessed as enzyme activity at 1 uM relative to untreated control", "parameters": "scale not given: the % may be the effect or the level left"}, "[14]": {"molecular_target": "LIM domain kinase 1 (Homo sapiens) (UniProt P53667)", "test": "Inhibition of LIMK1 assessed as enzyme activity at 1 uM relative to untreated control", "parameters": "scale not given: the % may be the effect or the level left"}, "[15]": {"tested_on": "Epidermal growth factor receptor (Homo sapiens), P00533 [UNDEFINED MUTATION]", "test": "Inhibition of EGFR L747-S752del, P753S mutant assessed as enzyme activity at 1 uM relative to untreated control", "type": "protein assay", "parameters": "scale not given: the % may be the effect or the level left"}, "[16]": {"molecular_target": "Focal adhesion kinase 1 (Homo sapiens) (UniProt Q05397)", "test": "Inhibition of PTK2 assessed as enzyme activity at 1 uM relative to untreated control", "parameters": "scale not given: the % may be the effect or the level left"}, "[17]": {"molecular_target": "SRSF protein kinase 2 (Homo sapiens) (UniProt P78362)", "test": "Inhibition of SRPK2 assessed as enzyme activity at 1 uM relative to untreated control", "parameters": "scale not given: the % may be the effect or the level left"}, "[18]": {"molecular_target": "Ephrin type-B receptor 2 (Homo sapiens) (UniProt P29323)", "test": "Inhibition of EPHB2 assessed as enzyme activity at 1 uM relative to untreated control", "parameters": "scale not given: the % may be the effect or the level left"}, "[19]": {"molecular_target": "TGF-beta receptor type-1 (Homo sapiens) (UniProt P36897)", "test": "Inhibition of TGFBR1 assessed as enzyme activity at 1 uM relative to untreated control", "parameters": "scale not given: the % may be the effect or the level left"}, "[20]": {"molecular_target": "Serine/threonine-protein kinase PAK 2 (Homo sapiens) (UniProt Q13177)", "test": "Inhibition of PAK2 assessed as enzyme activity at 1 uM relative to untreated control", "parameters": "scale not given: the % may be the effect or the level left"}, "[21]": {"molecular_target": "Ephrin type-A receptor 5 (Homo sapiens) (UniProt P54756)", "test": "Inhibition of EPHA5 assessed as enzyme activity at 1 uM relative to untreated control", "parameters": "scale not given: the % may be the effect or the level left"}, "[22]": {"molecular_target": "Dual specificity protein kinase CLK3 (Homo sapiens) (UniProt P49761)", "test": "Inhibition of CLK3 assessed as enzyme activity at 1 uM relative to untreated control", "parameters": "scale not given: the % may be the effect or the level left"}, "[23]": {"tested_on": "Mast/stem cell growth factor receptor Kit (Homo sapiens), P10721 [V559D]", "test": "Inhibition of KIT V559D mutant assessed as enzyme activity at 1 uM relative to untreated control", "parameters": "scale not given: the % may be the effect or the level left"}, "[24]": {"molecular_target": "cGMP-dependent protein kinase 1 (Homo sapiens) (UniProt Q13976)", "sequence (Q13976 whole entry)": "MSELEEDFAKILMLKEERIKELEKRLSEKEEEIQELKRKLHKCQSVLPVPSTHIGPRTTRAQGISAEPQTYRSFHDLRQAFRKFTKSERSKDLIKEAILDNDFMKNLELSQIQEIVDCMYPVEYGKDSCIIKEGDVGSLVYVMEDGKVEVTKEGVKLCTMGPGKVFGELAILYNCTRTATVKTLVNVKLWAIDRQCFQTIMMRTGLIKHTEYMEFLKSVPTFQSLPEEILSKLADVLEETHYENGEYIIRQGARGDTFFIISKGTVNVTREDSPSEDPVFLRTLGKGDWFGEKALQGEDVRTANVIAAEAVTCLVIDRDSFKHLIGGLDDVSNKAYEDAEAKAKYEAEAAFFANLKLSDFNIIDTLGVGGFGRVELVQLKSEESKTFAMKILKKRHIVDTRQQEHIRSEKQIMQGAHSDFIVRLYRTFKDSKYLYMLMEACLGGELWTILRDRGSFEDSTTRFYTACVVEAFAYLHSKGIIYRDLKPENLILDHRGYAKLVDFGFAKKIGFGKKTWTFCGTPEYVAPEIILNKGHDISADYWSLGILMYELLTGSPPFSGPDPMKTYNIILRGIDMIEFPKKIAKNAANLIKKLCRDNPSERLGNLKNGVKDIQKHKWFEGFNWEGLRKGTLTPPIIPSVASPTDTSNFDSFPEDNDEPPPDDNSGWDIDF", "test": "Inhibition of PRKG1 assessed as enzyme activity at 1 uM relative to untreated control", "parameters": "scale not given: the % may be the effect or the level left"}, "[25]": {"molecular_target": "MAP/microtubule affinity-regulating kinase 3 (Homo sapiens) (UniProt P27448)", "test": "Inhibition of MARK3 assessed as enzyme activity at 1 uM relative to untreated control", "parameters": "scale not given: the % may be the effect or the level left"}, "[26]": {"molecular_target": "Cyclin-dependent kinase 2 (Homo sapiens) (UniProt P24941)", "test": "Inhibition of CDK2 assessed as enzyme activity at 1 uM relative to untreated control", "parameters": "scale not given: the % may be the effect or the level left"}, "[27]": {"molecular_target": "Cyclin-dependent kinase 14 (Homo sapiens) (UniProt O94921)", "test": "Inhibition of PFTK1 assessed as enzyme activity at 1 uM relative to untreated control", "parameters": "scale not given: the % may be the effect or the level left"}, "[28]": {"molecular_target": "Wee1-like protein kinase (Homo sapiens) (UniProt P30291)", "test": "Inhibition of WEE1 assessed as enzyme activity at 1 uM relative to untreated control", "parameters": "scale not given: the % may be the effect or the level left"}, "[29]": {"molecular_target": "Receptor-interacting serine/threonine-protein kinase 4 (Homo sapiens) (UniProt P57078)", "sequence (P57078 whole entry)": "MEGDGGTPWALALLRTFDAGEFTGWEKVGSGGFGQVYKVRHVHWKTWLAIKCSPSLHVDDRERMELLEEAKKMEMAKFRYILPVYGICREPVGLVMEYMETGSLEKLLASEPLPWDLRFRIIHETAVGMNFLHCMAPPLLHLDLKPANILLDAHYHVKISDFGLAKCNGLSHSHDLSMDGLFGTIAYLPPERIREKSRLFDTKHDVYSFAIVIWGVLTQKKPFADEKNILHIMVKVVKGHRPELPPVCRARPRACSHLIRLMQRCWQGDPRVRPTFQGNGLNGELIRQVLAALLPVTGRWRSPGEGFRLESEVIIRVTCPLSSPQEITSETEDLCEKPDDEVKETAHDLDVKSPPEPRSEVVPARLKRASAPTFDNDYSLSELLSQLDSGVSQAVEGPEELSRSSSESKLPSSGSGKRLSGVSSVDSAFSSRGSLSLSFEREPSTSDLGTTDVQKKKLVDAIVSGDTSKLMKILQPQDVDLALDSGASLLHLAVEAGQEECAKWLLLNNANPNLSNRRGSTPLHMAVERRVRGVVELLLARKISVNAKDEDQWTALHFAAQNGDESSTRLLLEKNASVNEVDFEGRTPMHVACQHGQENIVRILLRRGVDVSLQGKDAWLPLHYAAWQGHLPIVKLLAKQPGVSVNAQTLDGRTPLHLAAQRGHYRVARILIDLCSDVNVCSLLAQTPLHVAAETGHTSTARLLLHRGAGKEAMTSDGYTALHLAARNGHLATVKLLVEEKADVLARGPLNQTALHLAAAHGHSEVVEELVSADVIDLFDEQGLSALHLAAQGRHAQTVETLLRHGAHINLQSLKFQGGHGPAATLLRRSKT", "test": "Inhibition of RIPK4 assessed as enzyme activity at 1 uM relative to untreated control", "parameters": "scale not given: the % may be the effect or the level left"}, "[30]": {"molecular_target": "Ephrin type-A receptor 2 (Homo sapiens) (UniProt P29317)", "test": "Inhibition of EPHA2 assessed as enzyme activity at 1 uM relative to untreated control", "parameters": "scale not given: the % may be the effect or the level left"}, "[31]": {"molecular_target": "Tyrosine-protein kinase Lyn (Homo sapiens) (UniProt P07948)", "test": "Inhibition of LYN assessed as enzyme activity at 1 uM relative to untreated control", "parameters": "scale not given: the % may be the effect or the level left"}, "[32]": {"molecular_target": "Proto-oncogene tyrosine-protein kinase Src (Homo sapiens) (UniProt P12931)", "test": "Inhibition of SRC assessed as enzyme activity at 1 uM relative to untreated control", "parameters": "scale not given: the % may be the effect or the level left"}, "[33]": {"tested_on": "Receptor-type tyrosine-protein kinase FLT3 (Homo sapiens), P36888 [K663Q]", "test": "Inhibition of FLT3 K663Q mutant assessed as enzyme activity at 1 uM relative to untreated control", "parameters": "scale not given: the % may be the effect or the level left"}, "[34]": {"molecular_target": "Serine/threonine-protein kinase LATS2 (Homo sapiens) (UniProt Q9NRM7)", "test": "Inhibition of LATS2 assessed as enzyme activity at 1 uM relative to untreated control", "parameters": "scale not given: the % may be the effect or the level left"}, "[35]": {"molecular_target": "Bone morphogenetic protein receptor type-1A (Homo sapiens) (UniProt P36894)", "test": "Inhibition of BMPR1A assessed as enzyme activity at 1 uM relative to untreated control", "parameters": "scale not given: the % may be the effect or the level left"}, "[36]": {"molecular_target": "Serine/threonine-protein kinase 32C (Homo sapiens) (UniProt Q86UX6)", "test": "Inhibition of YANK3 assessed as enzyme activity at 1 uM relative to untreated control", "parameters": "scale not given: the % may be the effect or the level left"}, "[37]": {"molecular_target": "Casein kinase I isoform delta (Homo sapiens) (UniProt P48730)", "sequence (P48730 whole entry, looked up, canonical isoform)": "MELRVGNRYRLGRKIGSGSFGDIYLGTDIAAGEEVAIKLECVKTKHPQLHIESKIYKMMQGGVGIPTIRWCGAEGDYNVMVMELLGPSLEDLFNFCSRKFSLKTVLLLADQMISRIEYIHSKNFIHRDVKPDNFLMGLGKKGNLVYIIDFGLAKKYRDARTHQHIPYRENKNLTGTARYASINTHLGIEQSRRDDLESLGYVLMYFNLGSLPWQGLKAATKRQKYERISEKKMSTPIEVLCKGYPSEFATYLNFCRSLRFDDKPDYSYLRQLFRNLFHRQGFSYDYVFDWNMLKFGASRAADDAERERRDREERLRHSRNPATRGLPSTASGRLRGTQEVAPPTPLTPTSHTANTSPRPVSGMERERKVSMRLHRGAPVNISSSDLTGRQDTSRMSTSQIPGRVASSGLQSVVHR", "test": "Inhibition of CSNK1D assessed as enzyme activity at 1 uM relative to untreated control", "parameters": "scale not given: the % may be the effect or the level left"}},
  "data": [
    {"smiles": "Cc1ccc2c(Nc3ccc(Cl)cc3)nccc2c1Nc1ncccc1-c1ncnc2[nH]cnc12.Cl.Cl.Cl", "values": [
      {"measurement": "Activity", "setting": "[1]", "value": 99, "unit": "%"},
      {"measurement": "Activity", "setting": "[2]", "value": 96, "unit": "%"},
      {"measurement": "Activity", "setting": "[3]", "value": 100, "unit": "%"},
      {"measurement": "Activity", "setting": "[4]", "value": 100, "unit": "%"},
      {"measurement": "Activity", "setting": "[5]", "value": 100, "unit": "%"},
      {"measurement": "Activity", "setting": "[6]", "value": 100, "unit": "%"},
      {"measurement": "Activity", "setting": "[7]", "value": 96, "unit": "%"},
      {"measurement": "Activity", "setting": "[8]", "value": 99, "unit": "%"},
      {"measurement": "Activity", "setting": "[9]", "value": 17, "unit": "%"},
      {"measurement": "Activity", "setting": "[10]", "value": 100, "unit": "%"},
      {"measurement": "Activity", "setting": "[11]", "value": 97, "unit": "%"},
      {"measurement": "IC50", "setting": "[12]", "value": "> 1600", "unit": "nM"},
      {"measurement": "Activity", "setting": "[13]", "value": 93, "unit": "%"},
      {"measurement": "Activity", "setting": "[14]", "value": 55, "unit": "%"},
      {"measurement": "Activity", "setting": "[15]", "value": 94, "unit": "%"},
      {"measurement": "Activity", "setting": "[16]", "value": 93, "unit": "%"},
      {"measurement": "Activity", "setting": "[17]", "value": 100, "unit": "%"},
      {"measurement": "Activity", "setting": "[18]", "value": 6.1, "unit": "%"},
      {"measurement": "Activity", "setting": "[19]", "value": 89, "unit": "%"},
      {"measurement": "Activity", "setting": "[20]", "value": 85, "unit": "%"},
      {"measurement": "Activity", "setting": "[21]", "value": 16, "unit": "%"},
      {"measurement": "Activity", "setting": "[22]", "value": 94, "unit": "%"},
      {"measurement": "Activity", "setting": "[23]", "value": 36, "unit": "%"},
      {"measurement": "Activity", "setting": "[24]", "value": 93, "unit": "%"},
      {"measurement": "Activity", "setting": "[25]", "value": 100, "unit": "%"},
      {"measurement": "Activity", "setting": "[26]", "value": 100, "unit": "%"},
      {"measurement": "Activity", "setting": "[27]", "value": 100, "unit": "%"},
      {"measurement": "Activity", "setting": "[28]", "value": 92, "unit": "%"},
      {"measurement": "Activity", "setting": "[29]", "value": 64, "unit": "%"},
      {"measurement": "Activity", "setting": "[30]", "value": 2.8, "unit": "%"},
      {"measurement": "Activity", "setting": "[31]", "value": 18, "unit": "%"},
      {"measurement": "Activity", "setting": "[32]", "value": 73, "unit": "%"},
      {"measurement": "Activity", "setting": "[33]", "value": 75, "unit": "%"},
      {"measurement": "Activity", "setting": "[34]", "value": 85, "unit": "%"},
      {"measurement": "Activity", "setting": "[35]", "value": 100, "unit": "%"},
      {"measurement": "Activity", "setting": "[36]", "value": 84, "unit": "%"},
      {"measurement": "Activity", "setting": "[37]", "value": 99, "unit": "%"}
    ]}
  ]
}
